Measured values as given in patent US8188135B2, “Compounds as cannabinoid receptor ligands” (priority 2008, dated 2012).

Tests used:
rat CB2 [1] = target: T1, rat CB2 (Rattus norvegicus, UniProt Q9QZN9); experiment: rat CB2 radioligand binding assay ([3H]CP 55,940 competition); design: expressed in transfected cells; host or cells: HEK293; details: rat CB2 (Ki, nM), HEK293 membranes, 0.5 nM [3H]CP 55,940
T1 sequence (Q9QZN9 1-360): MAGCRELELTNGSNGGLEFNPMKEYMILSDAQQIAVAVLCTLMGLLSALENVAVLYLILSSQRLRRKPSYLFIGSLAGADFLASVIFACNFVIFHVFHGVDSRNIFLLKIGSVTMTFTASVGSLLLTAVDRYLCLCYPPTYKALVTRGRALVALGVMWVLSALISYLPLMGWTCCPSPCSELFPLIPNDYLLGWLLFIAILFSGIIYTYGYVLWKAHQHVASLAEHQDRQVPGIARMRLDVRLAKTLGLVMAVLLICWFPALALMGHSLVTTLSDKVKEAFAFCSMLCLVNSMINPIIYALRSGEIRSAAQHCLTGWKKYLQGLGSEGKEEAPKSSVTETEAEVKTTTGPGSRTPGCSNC
Method in brief: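 Competition binding against 0.5 nM [3H]CP 55,940 (pH 7.4 buffer with 0.5 mg/mL BSA, 30 °C, 45 min), with displacers spanning 0.01 nM–10 μM at five concentrations. Receptor source: stably transfected HEK293 membranes, 20 μg/well. Nonspecific binding defined by 10 μM unlabeled CP 55,940; readout by filtration and counting.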

rat CB2 [2] = target: T1, rat CB2; experiment: rat CB2 cyclase functional assay (HitHunter cAMP); type: cell-based; design: expressed in transfected cells; host or cells: HEK; details: rat CB2 cyclase (EC50, nM), HEK cells, forskolin 18 μM
Method in brief: (§1)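 HEK cells expressing rat CB1 or CB2, 10,000 cells/well, incubated 20 min at 37° C with test ligands plus forskolin (37 μM for CB1, 18 μM for CB2) in DPBS with 0.01% BSA. cAMP read by enzyme-complementation luminescence after lysis; EC50 from sigmoidal dose-response fit.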

[3] = pharmacokinetic studies in rats; details: male, Sprague-Dawley, rat, in vivo; for clearance / half-life: iv, 3 micromole/kg; for bioavailability: po, 10 micromole/kg
human CB2 receptors = target: T2, human CB2 receptors (Homo sapiens, UniProt P34972); experiment: human CB2 radioligand binding assay ([3H]CP 55,940 competition); details: human CB2 (Ki, nM), HEK293 membranes, 0.5 nM [3H]CP 55,940
T2 construct: expressed in transfected cells; host or cells: HEK293
Method in brief: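 Displacement of 0.5 nM [3H]CP 55,940 over 0.01 nM-10 μM test compound, measured on human CB2 membranes from stably transfected HEK293 cells. Incubation 90 min at 30 °C in Tris/EDTA/MgCl2/BSA, pH 7.4, then filter-bound radioactivity counted; 10 μM unlabeled CP 55,940 defined nonspecific binding.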

Rat CB1 = target: T3, Rat CB1 (Rattus norvegicus, UniProt P20272); experiment: rat CB1 cyclase functional assay (HitHunter cAMP); type: cell-based; details: Rat CB1 cyclase (EC50, nM), HEK cells, forskolin 37 μM
T3 construct: expressed in transfected cells; host or cells: HEK
Method in brief: as §1

T3 sequence (P20272 whole entry): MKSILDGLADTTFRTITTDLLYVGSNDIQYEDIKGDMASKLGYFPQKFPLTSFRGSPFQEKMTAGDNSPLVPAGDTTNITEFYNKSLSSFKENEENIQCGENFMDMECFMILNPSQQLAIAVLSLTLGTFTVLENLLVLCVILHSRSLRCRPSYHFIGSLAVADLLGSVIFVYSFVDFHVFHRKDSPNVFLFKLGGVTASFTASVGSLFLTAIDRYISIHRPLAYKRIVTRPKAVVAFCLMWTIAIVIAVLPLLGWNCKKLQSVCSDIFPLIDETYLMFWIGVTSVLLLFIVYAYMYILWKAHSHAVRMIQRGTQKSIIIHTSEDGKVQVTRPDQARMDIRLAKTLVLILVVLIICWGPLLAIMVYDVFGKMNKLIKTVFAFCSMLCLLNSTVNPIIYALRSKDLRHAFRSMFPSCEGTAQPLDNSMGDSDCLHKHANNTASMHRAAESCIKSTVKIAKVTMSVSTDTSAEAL
T2 sequence (P34972 whole entry): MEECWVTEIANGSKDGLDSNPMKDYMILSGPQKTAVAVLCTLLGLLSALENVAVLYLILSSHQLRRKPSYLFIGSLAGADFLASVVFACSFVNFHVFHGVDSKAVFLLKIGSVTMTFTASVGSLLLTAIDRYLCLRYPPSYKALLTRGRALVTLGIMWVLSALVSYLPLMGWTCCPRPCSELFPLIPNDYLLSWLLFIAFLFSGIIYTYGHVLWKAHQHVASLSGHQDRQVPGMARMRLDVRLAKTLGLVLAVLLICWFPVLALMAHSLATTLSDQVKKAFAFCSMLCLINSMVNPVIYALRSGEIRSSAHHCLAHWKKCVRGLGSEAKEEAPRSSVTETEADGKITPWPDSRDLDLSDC

| Compound | Ki (rat CB2 [1]) [nM] | EC50 (rat CB2 [2]) [nM] | clearance [3] [mL/min/kg] | half-life [3] [h] | bioavailability [3] [%] | Ki (human CB2 receptors) [nM] | EC50 (Rat CB1) [nM] |
| --- | --- | --- | --- | --- | --- | --- | --- |
| Cn1c(C(C)(C)C)c/c(=N\C(=O)c2cc(C(F)(F)F)ccc2OCC(C)(C)O)n1CC1CCC1 [Example 86, N-[(3E)-5-tert-butyl-2-(cyclobutylmethyl)-1-methyl-1,2-dihydro-3H-pyrazol-3-ylidene]-2-(2-hydroxy-2-methylpropoxy)-5-(trifluoromethyl)benzamide] | 4.3 | 0.23 | 5 | 5.4 | 50 | 8.3 | 4020 |
| Cn1c(C(C)(C)C)c/c(=N\C(=O)c2cc(C(F)(F)F)ccc2OCC(C)(C)O)n1CCC(F)(F)F [Example 87, N-[(3E)-5-tert-butyl-1-methyl-2-(3,3,3-trifluoropropyl)-1,2-dihydro-3H-pyrazol-3-ylidene]-2-(2-hydroxy-2-methylpropoxy)-5-(trifluoromethyl)benzamide] | 7.6 | 0.25 | 5 | 3.2 | 64 | 18 | 3110 |
| Cn1c(C(C)(C)C)c/c(=N\C(=O)c2cc(Cl)ccc2OCC(C)(C)O)n1C[C@H]1CCCO1 [Example 89, N-{(3E)-5-tert-butyl-1-methyl-2-[(2R)-tetrahydrofuran-2-ylmethyl]-1,2-dihydro-3 H-pyrazol-3-ylidene}-5-chloro-2-(2-hydroxy-2-methylpropoxy)benzamide] | 7.6 | 0.61 | 16.7 | 1.6 | 37 | 19 | 2320 |
| Cn1c(C(C)(C)C)c/c(=N\C(=O)c2cc(C#N)ccc2OCC(C)(C)O)n1C[C@H]1CCCO1 [Example 90, N-{(3E)-5-tert-butyl-1-methyl-2-[(2R)-tetrahydrofuran-2-ylmethyl]-1,2-dihydro-3 H-pyrazol-3-ylidene}-5-cyano-2-(2-hydroxy-2-methylpropoxy)benzamide] | 11 | 1.8 | 41.7 | 2.1 | 28 | 41 | > 27000 |
| Cn1c(C(C)(C)C)c/c(=N\C(=O)c2cc(C#N)ccc2OCC(C)(C)O)n1CC1CCCC1 [Example 127, N-[(3E)-5-tert-butyl-2-(cyclopentylmethyl)-1-methyl-1,2-dihydro-3H-pyrazol-3-ylidene]-5-cyano-2-(2-hydroxy-2-methylpropoxy)benzamide] | 12 | 1.78 | 46.7 | 0.8 | 60 | 47 | > 27000 |
